Experimental data from patent US7947695B2, “5-membered annelated heterocyclic pyrimidines as kinase inhibitors” (Janssen Pharmaceutica NV, priority 2005, dated 2011).

What was measured:
Type in all cases: biochemical
CDK4/cyclinD1 = CDK4/cyclinD1 (Homo sapiens, UniProt P11802); test: In vitro filtration assay for CDK4 inhibitory activity (pRb phosphorylation, [33P]-ATP); conditions: GST-pRb substrate, 1 μM unlabeled ATP, 25° C. 45 minutes, read-out: cdk4 filter (pIC50) (converted)
Procedure: (§1) Compounds of the present invention were tested in an in vitro filtration assay assessing CDK4 activity by means of its pRb-phosphorylation activity using [^33P]-ATP as phosphor donor. The radioactive phosphorylated pRb is then captured on filtermats and the incorporated [^33P] quantitated using a phosphorage storage screen.
The CDK4 kinase reaction is performed at 25° C. for 45 minutes in a 96-well microtiterplate. The 25 μl reaction volume contains 50 mM Hepes pH 7.5, 10 mM NaF, 10 mM MgCl2, 1 mM Na3VO4, 1 μM unlabeled ATP, 1 mM DTT, 0.5 μCi AT^33P, 0.76 μg/well GST-pRb, 50 ng CDK4/cyclinD1/well and 0.2% compound in 100% DMSO.
(§2) The reaction is stopped by adding 5 μl of a 3% phosphoric acid solution. 10 μl of the reaction mixture is then spotted onto a Filtermat P30 filter (Wallac) and washed 3 times for 5 min. in 75 mM phosphoric acid and 1 time for 5 min. in methanol prior to drying and quantification on the Typhoon (Amersham) using a phosphorage storage screen.
(§3) For each experiment, controls (containing enzyme (complex) and DMSO without compound), a blank incubation (containing DMSO but no enzyme (complex) or compound) and samples (containing enzyme (complex) and compound dissolved in DMSO) were run in parallel. All compounds tested were dissolved and eventually further diluted in DMSO. […] In each test, the blank value was subtracted from both the control and the sample values. The control sample represented maximal enzyme activity. For each sample, the amount of cpm was expressed as a percentage of the mean cpm value of the controls. When appropriate, IC50-values (concentration of the drug, needed to reduce the enzyme activity to 50% of the control) were computed using linear interpolation between the experimental points just above and below the 50% level. Herein the effects of test compounds are expressed as pIC50 (the negative log value of the IC50-value).

AURORA B = AURORA B (Homo sapiens, UniProt Q96GD4); test: In vitro filtration assay for AURORA B inhibitory activity; conditions: peptide (C(LRRWSLG)×4), 1 μM unlabeled ATP, 25° C. 40 minutes, read-out: Aurora B see C.3 (pIC50) (converted)
Procedure: as §1, with “AURORA B” for “CDK4”, “substrate-phosphorylation” for “pRb-phosphorylation”, “substrate” for “pRb”
The Aurora-B kinase reaction is performed at 25° C. for 40 minutes in a 96-well microtiterplate. The 25 μl reaction volume contains 60 mM Hepes pH 7.5, 3 mM MgCl2, 3 mM MnCl2, 3 μM Na3VO4, 50 μg/ml PEG20000, 1 μM unlabeled ATP, 1 mM DTT, 0.2 μCi AT^33P, 0.25 μg/well peptide (C(LRRWSLG)×4),100 ng Aurora-B/well and 0.2% compound in 100% DMSO. The reaction is stopped by adding 5 μl of a 3% phosphoric acid solution. 10 μl of the reaction mixture is then spotted onto a Filtermat P30 filter (Wallac) and washed 3 times for 5 min. in 75 mM phosphoric acid and 1 time for 5 min. in methanol prior to drying and quantification on the Typhoon (Amersham) using a phosphorage storage screen.
as §3

AURORA A = biological target: T1, AURORA A (Homo sapiens, UniProt O14965); test: In vitro filtration assay for AURORA A inhibitory activity; conditions: Kemptide substrate, 1 μM unlabeled ATP, 25° C. 40 minutes, read-out: Aurora A see C.2 (pIC50) (converted)
T1 sequence (O14965 1-403): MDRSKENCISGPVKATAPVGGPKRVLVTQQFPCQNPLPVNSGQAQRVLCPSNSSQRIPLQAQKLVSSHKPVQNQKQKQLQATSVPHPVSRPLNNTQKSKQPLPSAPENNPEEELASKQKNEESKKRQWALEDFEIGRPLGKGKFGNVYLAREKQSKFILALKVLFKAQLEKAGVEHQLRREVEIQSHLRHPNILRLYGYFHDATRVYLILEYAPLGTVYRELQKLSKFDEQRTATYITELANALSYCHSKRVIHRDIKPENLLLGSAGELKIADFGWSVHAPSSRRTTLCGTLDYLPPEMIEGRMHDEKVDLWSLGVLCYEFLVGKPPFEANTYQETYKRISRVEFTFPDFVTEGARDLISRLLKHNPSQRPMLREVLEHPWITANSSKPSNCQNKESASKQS
Procedure: as §1, with “AURORA A” for “CDK4”, “substrate-phosphorylation” for “pRb-phosphorylation”, “substrate” for “pRb”
The Aurora-A kinase reaction is performed at 25° C. for 40 minutes in a 96-well microtiterplate. The 25 μl reaction volume contains 12 mM MOPS pH 7, 0.4 mM EDTA, 0.002% Brij35, 1% glycerol, 0.02% beta-mercapto-ethanol, 0.2 mg/ml BSA, 1 μM unlabeled ATP, […] [^33P]-ATP, 200 μM Kemptide, 3 ng Aurora A/well and 0.2% compound in 100% DMSO.
as §2, §3

Sequence of AURORA B (Q96GD4 whole entry): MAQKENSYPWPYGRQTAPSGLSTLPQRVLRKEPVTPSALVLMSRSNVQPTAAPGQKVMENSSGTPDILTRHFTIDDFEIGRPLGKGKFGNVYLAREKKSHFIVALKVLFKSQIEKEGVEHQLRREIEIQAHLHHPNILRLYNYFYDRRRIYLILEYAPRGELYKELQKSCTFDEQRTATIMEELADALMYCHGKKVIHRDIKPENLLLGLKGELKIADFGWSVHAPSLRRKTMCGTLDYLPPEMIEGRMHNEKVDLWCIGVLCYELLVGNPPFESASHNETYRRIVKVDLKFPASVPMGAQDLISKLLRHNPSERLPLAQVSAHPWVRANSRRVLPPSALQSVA
Sequence of CDK4/cyclinD1 (P11802 whole entry): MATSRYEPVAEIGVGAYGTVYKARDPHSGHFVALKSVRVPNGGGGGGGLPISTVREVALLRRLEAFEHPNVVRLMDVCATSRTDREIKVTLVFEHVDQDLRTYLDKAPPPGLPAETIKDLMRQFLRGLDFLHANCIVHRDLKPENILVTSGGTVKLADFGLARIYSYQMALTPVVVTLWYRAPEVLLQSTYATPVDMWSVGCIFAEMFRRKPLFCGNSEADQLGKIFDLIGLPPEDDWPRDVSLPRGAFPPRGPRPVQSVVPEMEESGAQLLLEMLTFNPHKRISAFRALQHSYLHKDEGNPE
Sequence of CDK4/cyclinD1 (P24385 whole entry partner): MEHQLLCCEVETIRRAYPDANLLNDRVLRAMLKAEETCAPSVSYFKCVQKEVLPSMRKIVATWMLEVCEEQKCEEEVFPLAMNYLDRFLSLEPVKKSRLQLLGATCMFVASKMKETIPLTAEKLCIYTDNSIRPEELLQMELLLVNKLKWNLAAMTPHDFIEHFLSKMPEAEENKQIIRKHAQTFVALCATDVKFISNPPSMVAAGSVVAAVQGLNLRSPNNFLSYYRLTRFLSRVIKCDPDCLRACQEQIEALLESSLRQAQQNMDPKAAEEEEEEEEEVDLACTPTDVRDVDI

| IC50 (CDK4/cyclinD1) [nM] | IC50 (AURORA B) [µM] | IC50 (AURORA A) [nM] | Compound |
| --- | --- | --- | --- |
| 251 | 1 | 1580 | c1cc(Nc2ncc3cnn(C4CCCCC4)c3n2)ccc1CNC1CCOCC1 [compound 67] |
| 1000 | 7.94 | 6310 | CN1CCC(NCc2ccc(N(C(=O)OC(C)(C)C)c3ncc4cnn([C@H]5C[C@@H]6CC[C@H]5C6)c4n3)cc2)CC1 [compound 68] |
| 25.1 | 1 | 631 | CN1CCC(NCc2ccc(Nc3ncc4cnn([C@H]5C[C@@H]6CC[C@H]5C6)c4n3)cc2)CC1 [compound 69] |
| > 10000 | > 10 | > 10000 | CC(C)(C)OC(=O)N(c1ccc(CNCCN2CCOCC2)cc1)c1ncc2cnn(C3CCOCC3)c2n1 [compound 70] |
| 2510 | > 10 | 5010 | c1cc(Nc2ncc3cnn(C4CCOCC4)c3n2)ccc1CNCCN1CCOCC1 [compound 71] |
| > 10000 | > 10 | > 10000 | CN1CCC(NCc2ccc(N(C(=O)OC(C)(C)C)c3ncc4cnn(C5CCOCC5)c4n3)cc2)CC1 [compound 72] |
| 631 | > 10 | > 10000 | CN1CCC(NCc2ccc(Nc3ncc4cnn(C5CCOCC5)c4n3)cc2)CC1 [compound 73] |
| 126 | 1.26 | 1580 | OCCN1CCC(NCc2ccc(Nc3ncc4cnn(C5CCCCC5)c4n3)cc2)CC1 [compound 75] |
| > 10000 | > 10 | > 10000 | COCCCN1CCC(NCc2ccc(N(C(=O)OC(C)(C)C)c3ncc4cnn(C5CCCCC5)c4n3)cc2)CC1 [compound 76] |
| 79.4 | 2 | > 10000 | COCCCN1CCC(NCc2ccc(Nc3ncc4cnn(C5CCCCC5)c4n3)cc2)CC1 [compound 77] |
| 2000 | > 10 | > 10000 | CN1CCN(Cc2ccc(Nc3ncc4[nH]c(=O)n(C5CCCCC5)c4n3)cc2)CC1 [compound 79] |
| 3980 | > 10 | 2510 | CC(=O)N1CCN(c2ccc(Nc3ncc4[nH]c(=O)n(C5CCCCC5)c4n3)cc2)CC1 [compound 80] |
| 5010 | > 10 | > 10000 | O=c1[nH]c2cnc(Nc3ccc(N4CCOCC4)nc3)nc2n1C1CCCCC1 [compound 81] |
| 2000 | > 10 | > 10000 | CN(C)CCOC(=O)c1ccc(Nc2ncc3[nH]c(=O)n(C4CCCCC4)c3n2)cc1 [compound 82] |
| 2510 | > 10 | > 10000 | CN1CCN(C(=O)c2ccc(Nc3ncc4[nH]c(=O)n(C5CCCCC5)c4n3)cc2)CC1 [compound 83] |
| 631 | > 10 | 6310 | CN1CCN(c2ccc(Nc3ncc4[nH]c(=O)n(C5CCCCC5)c4n3)cc2Cl)CC1 [compound 84] |
| > 10000 | > 10 | 3160 | O=c1[nH]c2cnc(Nc3ccc(S(=O)(=O)N4CCOCC4)cc3)nc2n1C1CCCCC1 [compound 85] |
| 2510 | > 10 | 5010 | O=c1[nH]c2cnc(Nc3ccc(CNC4CCNCC4)cc3)nc2n1C1CCCCC1 [compound 86] |

The next lines start with the compound.

| Compound | IC50 (CDK4/cyclinD1) [nM] | IC50 (AURORA B) [µM] | IC50 (AURORA A) [nM] |
| --- | --- | --- | --- |
| COCCCN(C(=O)OC(C)(C)C)C1CCN(Cc2ccc(N(C(=O)OC(C)(C)C)c3ncc4cnn(C5CCCCC5)c4n3)cc2)CC1 [compound 46] | > 10000 | > 10 | > 10000 |
| COCCCNC1CCN(Cc2ccc(Nc3ncc4cnn(C5CCCCC5)c4n3)cc2)CC1 [compound 47] | 31.6 | 3.98 | 316 |
| CN1CCN(Cc2ccc(N(C(=O)OC(C)(C)C)c3ncc4cnn(C5CCOCC5)c4n3)cc2)CC1 [compound 48] | > 10000 | > 10 | > 10000 |
| CC(C)(C)OC(=O)N(c1ccc(CN2CCOCC2)cc1)c1ncc2cnn(C3CCOCC3)c2n1 [compound 50] | > 10000 | > 10 | > 10000 |
| c1cc(Nc2ncc3cnn(C4CCOCC4)c3n2)ccc1CN1CCOCC1 [compound 51] | 5010 | > 10 | 1000 |
| c1cc(Nc2ncc3cnn([C@H]4C[C@@H]5CC[C@H]4C5)c3n2)ccc1CN1CCOCC1 [compound 52] | 79.4 | 0.316 | 158 |
| CC(C)(O)CN1CCN(Cc2ccc(Nc3ncc4cnn(C5CCOCC5)c4n3)cc2)CC1 [compound 53] | 501 | 7.94 | > 10000 |
| OCCN1CCN(Cc2ccc(Nc3ncc4cnn(C5CCOCC5)c4n3)cc2)CC1 [compound 54] | 631 | > 10 | > 10000 |
| CC(C)(C)OC(=O)N(c1ccc(CN2CCN(CCO)CC2)cc1)c1ncc2cnn(C3CCOCC3)c2n1 [compound 55] | > 10000 | > 10 | > 10000 |
| O=C(c1ccc(Nc2ncc3cnn(C4CCCCC4)c3n2)cc1)N1CCOCC1 [compound 56] | 25.1 | 3.16 | 126 |
| CN1CCN(C(=O)c2ccc(Nc3ncc4cnn([C@H]5C[C@@H]6CC[C@H]5C6)c4n3)cc2)CC1 [compound 57] | 100 | 7.94 | 100 |
| CC(C)(O)CN1CCN(C(=O)c2ccc(Nc3ncc4cnn(C5CCCCC5)c4n3)cc2)CC1 [compound 58] | 631 | 1.26 | 126 |
| c1cc(Nc2ncc3cnn(C4CCCCC4)c3n2)ccc1CNC1CCNCC1 [compound 59] | 15.8 | > 10 | 794 |
| CC(C)(C)OC(=O)N1CCC(N(Cc2ccc(Nc3ncc4cnn(C5CCCCC5)c4n3)cc2)C(=O)OC(C)(C)C)CC1 [compound 61] | > 10000 | > 10 | 1260 |
| CN1CCC(N(Cc2ccc(Nc3ncc4cnn(C5CCCCC5)c4n3)cc2)C(=O)OC(C)(C)C)CC1 [compound 62] | 25.1 | 6.31 | 158 |
| CC(C)(O)CN1CCC(NCc2ccc(Nc3ncc4cnn(C5CCCCC5)c4n3)cc2)CC1 [compound 63] | 25.1 | 2.51 | 1000 |
| CC(C)(C)OC(=O)N(c1ccc(CNCCN2CCOCC2)cc1)c1ncc2cnn([C@H]3C[C@@H]4CC[C@H]3C4)c2n1 [compound 64] | 6310 | > 10 | > 10000 |
| c1cc(Nc2ncc3cnn([C@H]4C[C@@H]5CC[C@H]4C5)c3n2)ccc1CNCCN1CCOCC1 [compound 65] | 200 | 0.501 | 501 |
